Legend:
[1] = tested on: FaDu cells; experiment: Cell binding assay; type: cell-based; conditions: OCTL14 20 min, cRGD-ZW800-PEG 30 min, Cy5 / Cy7 fluorescence imaging, n = 6
Protocol: To evaluate the cellular uptake of OCTL14 and cRGD-ZW800-PEG in HNSCC cells, a cell binding assay was done using FaDu cells (HTB-43), purchased from the American Type Culture Collection (Manassas, VA, USA). The cells were first cultured in complete Dulbecco’s modified Eagle’s medium (cDMEM) supplemented with 4.5 g/l glucose, L-glutamine and sodium pyruvate, 10% FBS, and 1% penicillin/streptomycin (Lonza, DE17-602E) at 37 °C in a 5% CO2 humidified chamber. Then, cells were seeded in a 24-well plate at a density of 20,000 cells/well and incubated for 24 h. After discarding old medium and washing twice with Hanks’ balanced salt solution (HBSS), the cells were incubated with OCTL14 for 20 min and with cRGD-ZW800-PEG for 30 min, respectively. The wells were washed 3 times with HBSS before fluorescence images were captured using Cy5 and Cy7 filters on Cytation 5 for OCTL14 and cRGD-ZW800-PEG, respectively.

[2] = tested on: FaDu cells; experiment: Cell viability assay (CCK-8); type: cell-based; conditions: FaDu cells
Protocol: (§1) To evaluate the toxicity of OCTL14 and cRGD-ZW800-PEG on FaDu cells, cell viability was measured by using the Cell Counting Kit-8 (CCK-8, Dojindo Molecular Technologies Inc., Kumamoto, Japan). FaDu cells were seeded at a density of 400 cells/well in a 96-well plate, and then they were then treated with either 2, 5, 10, and 20 μM OCTL14 or 1.6, 3.1, 6.3, 12.5, 25, 50, and 100 μM cRGD-ZW800-PEG in growth medium for 24 h at 37 °C. Then, the dye and old medium were removed from all wells, and new medium were added and incubated for 24 h before 10 μl of CCK-8 solution was added to each well. After 3 h of incubation for OCTL14 and 4 h of incubation for cRGD-ZW800-PEG, absorbance was measured at 450 nm using a microplate reader. The cell survival rate for each dye was calculated using the following equation: Survival rate (%) = (Asample − Ab)/(Ac − Ab) × 100 (Asample, absorbance of sample; Ab, absorbance of blank well; Ac, absorbance of negative control). Experiments were repeated at least 3 times.

[3] = tested on: FaDu cells; experiment: Cellular uptake inhibition assay; type: cell-based; conditions: n = 6
Protocol: To reveal the uptake mechanism of OCTL14 on FaDu cells, a cellular uptake inhibition assay was performed using bromsulphthalein (BSP) (Sigma-Aldrich, St. Louis, MO, USA) and corticosteroid (Sigma-Aldrich). First, the 15,000 cells were plated per well on a 24-well plate. After incubation for 48 h at 37 °C, cells were washed twice with 0.5 ml of HBSS. Then, the cells were pretreated with 250 μM BSP for 5 min or 25 μM corticosteroid for 5 min, before they were incubated with 2 μM OCTL14 for 15 min at 37 °C. To rule out the possible diffusion of OCTL14 across the plasma membrane, FaDu cells were incubated with 2 μM OCTL14 at 4 °C for 15 min. Serum-free medium was added to the control group without any inhibitors. After washing, images were acquired by Cytation 5 using a Cy5 filter. ImageJ software version 1.52p was used to measure the fluorescent intensity of FaDu cells at each condition.

[4] = tested on: FaDu tongue cancer xenograft; experiment: Intraoperative fluorescence imaging of orthotopic and ectopic FaDu tumors (TBR, histology); type: in vivo, mice; conditions: for Tumor-to-background ratio (TBR): FaDu tongue cancer xenograft, intravenous, within 4 h post-injection, OCTL14 cancerous tissue, cRGD-ZW800-PEG surrounding TME; for Localisation by histopathologic analysis: orthotopic FaDu tongue tumor, 4 h after intravenous injection, frozen sections, NIR and H&E
Protocol: To evaluate the targetability of OCTL14 and cRGD-ZW800-PEG on the orthotopic xenograft model of tongue cancer, 0.5 × 10^6 of FaDu cells in a 30-μl mixture of saline and Matrigel (1:2 ratio) were injected subepithelially into the tip of the tongue using an insulin syringe. When the size of the tongue tumor reached 2 mm, dual fluorescence imaging was performed by injecting cRGD-ZW800-PEG and OCTL14 intravenously 4 h prior to imaging. For the ectopic xenograft model of HNSCC, 0.5 × 10^6 of FaDu cells in a 50-μl mixture of saline and Matrigel (1:2 ratio) were injected subcutaneously on the lower back of the mouse. When the size of the ectopic tumor reached 3 mm, in vivo evaluation of the targetability of the 2 NIR fluorophores was performed. All the animal surgeries were performed under anesthesia with isoflurane.
The real-time fluorescence intensity of OCTL14 and cRGD-ZW800-PEG at the orthotopic and ectopic tumors was compared with the surrounding nontumor region (background signal) to evaluate the TBR. After intraoperative imaging, the fluorescence intensity of the tumor tissue was acquired using ImageJ software and divided by the fluorescence intensity of the surrounding tissue to calculate TBR for both OCTL14 and cRGD-ZW800-PEG. Quantitative time-course assessment of both orthotopic and ectopic tongue cancer was performed for both OCTL14 and cRGD-ZW800-PEG at 1, 4, 6, and 24 h post-intravenous injection. At least 3 head and neck tumor models were evaluated for the quantitative analysis of TBR.
Tumor and TME targetability of OCTL14 and cRGD-ZW800-PEG were confirmed by histology analysis on the orthotopic HNSCC xenograft model. The tumor-bearing tongue was excised from the mouse after in vivo imaging of the tumors at 4 h after intravenous injection of the 2 fluorophores, and embedded in Tissue-Tek optimal cutting temperature compound (Sakura Finetek, Torrance, CA, USA). Frozen sections were acquired and placed on slides with a cut thickness of 10 μm using a cryostat (Leica, Germany). Fluorescence images were taken for both OCTL14 and cRGD-ZW800-PEG using Cy5 filter and Cy7 filter on Cytation 5, respectively. After dual fluorescence imaging, the tissue sections were stained with hematoxylin and eosin (H&E), and bright-field images of the orthotopic tongue cancer were acquired using Cytation 5.

[5] = Photostability under NIR irradiation; conditions: under 630-nm NIR light; 25 μM in 10% FBS; up to 3 h
[6] = Biodistribution and clearance, K-FLARE NIR imaging; conditions: tumor-bearing nude mice; 100 nmol intravenous; 4 h post-injection; SBR relative to muscle
[7] = Serum protein binding assay, rapid equilibrium dialysis; conditions: rapid equilibrium dialysis device; 5 μM; 10% fetal bovine serum; 8 h incubation; absorbance read-out of sample and buffer chamber (Cytation 5)
[8] = not given; remark: listed apart in the source
[9] = not given; remark: listed apart in the source
[10] = Cell viability assay (CCK-8); type: cell-based
Protocol: as §1

| Photostability: remaining initial absorbance [5] | Plasma protein binding, 8 h (%Bound) [7] [%] | Structure (SMILES) | Uptake in FaDu cells (cell binding assay) [1] | IC50 ([2]; 24 h treatment at 37 °C, then 24 h in new medium, absorbance 450 nm, n = 5, read-out: IC50 (cytotoxicity, CCK-8)) [µM] | Concentration up to which little toxicity was shown ([2]; CCK-8 assay, 24 h treatment) [µM] | Uptake in cold inhibition test ([3]; 2 μM OCTL14 at 4 °C) | Effect of corticosteroid (OCT inhibitor) on uptake of OCTL14 ([3]; 25 μM corticosteroid pretreatment 5 min, 2 μM OCTL14, 15 min, 37 °C, compared to control) | Effect of BSP (OATP inhibitor) on uptake of OCTL14 ([3]; 250 μM BSP pretreatment 5 min, 2 μM OCTL14, 15 min, 37 °C) | Tumor-to-background ratio (TBR) [4] | Localisation by histopathologic analysis [4] | Biodistribution (SBR of resected organs) [6] | absorbance maximum [nm] | quantum yield (QY) [8] [%] | fluorescence maximum [9] [nm] | IC50 [10] [µM] |
| --- | --- | --- | --- | --- | --- | --- | --- | --- | --- | --- | --- | --- | --- | --- | --- |
| over 90% | 4.46 | Br.C[N+]1=C(/C=C2\C(=O)C(/C=C3/N(CCC[N+](C)(C)C)c4ccc(F)cc4C3(C)C)=C2[O-])C(C)(C)c2ccccc21.[I-] [OCTL14] | significantly high target affinity | 42.1 | ≤ 20 | Negative uptake | significantly reduced the uptake | little impact | > 2.0 | effectively imaged the tumor cell itself | high SBR in the kidney, gallbladder, and intestine |  |  |  |  |
|  |  | CC1(C)C(=CC=C2CCCC(C=CC3=[N+](CCC[N+](C)(C)C)c4ccc(S(=O)(=O)O)cc4C3(C)C)=C2SCCOCCOCCC(=O)NCCCC[C@@H]2NC(=O)[C@@H](Cc3ccc(O)cc3)NC(=O)[C@H](CC(=O)O)NC(=O)CNC(=O)[C@H](CCCNC(=N)N)NC2=O)N(CCC[N+](C)(C)C)c2ccc(S(=O)(=O)O)cc21 [cRGD-ZW800-PEG] | limited uptake |  |  |  |  |  | > 1.5 | peritumoral tissue was the primary target |  | 784 | 8.52 | 809 | 45.8 |
